From PubChem BioAssay (NCI)
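Cells were grown in 96-well plates and exposed to each compound for 48 hours at five concentrations; endpoints were interpolated linearly between bracketing concentrations, or set to the highest concentration if not reached. At the GI50, growth is halved. Definition used: TGI = concentration required for complete inhibition of growth.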

Columns and labels:
Test in all cases: NCI anticancer screen, dose series, 48 h
UACC-257 melanoma = test system: UACC-257 melanoma
COLO 205 colon = test system: COLO 205 colon
IGROV1 ovarian = test system: IGROV1 ovarian
SF-295 CNS = test system: SF-295 CNS
PC-3 prostate = test system: PC-3 prostate
SK-MEL-28 melanoma = test system: SK-MEL-28 melanoma
NCI-H226 lung = test system: NCI-H226 lung
SNB-75 CNS = test system: SNB-75 CNS
SK-MEL-2 melanoma = test system: SK-MEL-2 melanoma
A498 renal = test system: A498 renal
HT29 colon = test system: HT29 colon
M14 melanoma = test system: M14 melanoma
U251 CNS = test system: U251 CNS
CAKI-1 renal = test system: CAKI-1 renal
UO-31 renal = test system: UO-31 renal
MDA-MB-435 = test system: MDA-MB-435
HL-60(TB) leukemia = test system: HL-60(TB) leukemia
MDA-MB-231 breast = test system: MDA-MB-231 breast
786-0 renal = test system: 786-0 renal
NCI-H460 lung = test system: NCI-H460 lung
MCF7 breast = test system: MCF7 breast
HCT-116 colon = test system: HCT-116 colon
OVCAR-4 ovarian = test system: OVCAR-4 ovarian
SN12C renal = test system: SN12C renal
SW-620 colon = test system: SW-620 colon
MALME-3M melanoma = test system: MALME-3M melanoma
HCC-2998 colon = test system: HCC-2998 colon
LOX IMVI melanoma = test system: LOX IMVI melanoma
SNB-19 CNS = test system: SNB-19 CNS
TK-10 renal = test system: TK-10 renal
UACC-62 melanoma = test system: UACC-62 melanoma
T-47D breast = test system: T-47D breast
EKVX NSCLC = test system: EKVX NSCLC
BT-549 breast = test system: BT-549 breast
NCI/ADR-RES ovarian = test system: NCI/ADR-RES ovarian
SK-OV-3 ovarian = test system: SK-OV-3 ovarian
DU-145 prostate = test system: DU-145 prostate
HOP-62 NSCLC = test system: HOP-62 NSCLC
A549 NSCLC = test system: A549 NSCLC
NCI-H23 lung = test system: NCI-H23 lung
RXF 393 renal = test system: RXF 393 renal
HS 578T breast = test system: HS 578T breast
SK-MEL-5 melanoma = test system: SK-MEL-5 melanoma
HCT-15 colon = test system: HCT-15 colon
SF-268 CNS = test system: SF-268 CNS
OVCAR-5 ovarian = test system: OVCAR-5 ovarian
HOP-92 NSCLC = test system: HOP-92 NSCLC
OVCAR-8 ovarian = test system: OVCAR-8 ovarian
K-562 leukemia = test system: K-562 leukemia
KM12 colon = test system: KM12 colon
RPMI-8226 leukemia = test system: RPMI-8226 leukemia
CCRF-CEM leukemia = test system: CCRF-CEM leukemia
ACHN renal = test system: ACHN renal
SR leukemia = test system: SR leukemia
MOLT-4 leukemia = test system: MOLT-4 leukemia

C=CC[N+]1(CCO)CCN=C1CCCCCCCCCCCCC (stereo not given)
GI50 (UACC-257 melanoma): 1760 nM
TGI (UACC-257 melanoma): 3270 nM
GI50 (COLO 205 colon): 1700 nM
TGI (COLO 205 colon): 3080 nM
GI50 (IGROV1 ovarian): 288 nM
TGI (IGROV1 ovarian): 1250 nM
GI50 (SF-295 CNS): 1810 nM
TGI (SF-295 CNS): 3300 nM
GI50 (PC-3 prostate): 1370 nM
TGI (PC-3 prostate): 2850 nM
GI50 (SK-MEL-28 melanoma): 1750 nM
TGI (SK-MEL-28 melanoma): 3120 nM
GI50 (NCI-H226 lung): 1700 nM
TGI (NCI-H226 lung): 3430 nM
GI50 (SNB-75 CNS): 1560 nM
TGI (SNB-75 CNS): 2900 nM
GI50 (SK-MEL-2 melanoma): 2040 nM
TGI (SK-MEL-2 melanoma): 3690 nM
GI50 (A498 renal): 2090 nM
TGI (A498 renal): 8260 nM
GI50 (HT29 colon): 1300 nM
TGI (HT29 colon): 2560 nM
GI50 (M14 melanoma): 1640 nM
TGI (M14 melanoma): 2990 nM
GI50 (U251 CNS): 1330 nM
TGI (U251 CNS): 2600 nM
GI50 (CAKI-1 renal): 1650 nM
TGI (CAKI-1 renal): 3150 nM
GI50 (UO-31 renal): 1180 nM
TGI (UO-31 renal): 2570 nM
GI50 (MDA-MB-435): 1720 nM
TGI (MDA-MB-435): 3090 nM
GI50 (HL-60(TB) leukemia): 1510 nM
TGI (HL-60(TB) leukemia): 3100 nM
GI50 (MDA-MB-231 breast): 1610 nM
TGI (MDA-MB-231 breast): 3100 nM
GI50 (786-0 renal): 1650 nM
TGI (786-0 renal): 3010 nM
GI50 (NCI-H460 lung): 1700 nM
TGI (NCI-H460 lung): 3060 nM
GI50 (MCF7 breast): 1500 nM
TGI (MCF7 breast): 2820 nM
GI50 (HCT-116 colon): 1400 nM
TGI (HCT-116 colon): 2690 nM
GI50 (OVCAR-4 ovarian): 1670 nM
TGI (OVCAR-4 ovarian): 3450 nM
GI50 (SN12C renal): 1460 nM
TGI (SN12C renal): 2850 nM
GI50 (SW-620 colon): 1630 nM
TGI (SW-620 colon): 2980 nM
GI50 (MALME-3M melanoma): 1600 nM
TGI (MALME-3M melanoma): 3180 nM
GI50 (HCC-2998 colon): 1370 nM
TGI (HCC-2998 colon): 2660 nM
GI50 (LOX IMVI melanoma): 1380 nM
TGI (LOX IMVI melanoma): 2680 nM
GI50 (SNB-19 CNS): 1630 nM
TGI (SNB-19 CNS): 2990 nM
GI50 (TK-10 renal): 1990 nM
TGI (TK-10 renal): 3400 nM
GI50 (UACC-62 melanoma): 1820 nM
TGI (UACC-62 melanoma): 3520 nM
GI50 (T-47D breast): 1650 nM
TGI (T-47D breast): 3470 nM
GI50 (EKVX NSCLC): 1620 nM
TGI (EKVX NSCLC): 2970 nM
GI50 (BT-549 breast): 1760 nM
TGI (BT-549 breast): 3240 nM
GI50 (NCI/ADR-RES ovarian): 1650 nM
TGI (NCI/ADR-RES ovarian): 3010 nM
GI50 (SK-OV-3 ovarian): 1730 nM
TGI (SK-OV-3 ovarian): 3140 nM
GI50 (DU-145 prostate): 1600 nM
TGI (DU-145 prostate): 2950 nM
GI50 (HOP-62 NSCLC): 1720 nM
TGI (HOP-62 NSCLC): 3090 nM
GI50 (A549 NSCLC): 1830 nM
TGI (A549 NSCLC): 3300 nM
GI50 (NCI-H23 lung): 1500 nM
TGI (NCI-H23 lung): 2820 nM
GI50 (RXF 393 renal): 1440 nM
TGI (RXF 393 renal): 2810 nM
GI50 (HS 578T breast): 1580 nM
TGI (HS 578T breast): 3760 nM
GI50 (SK-MEL-5 melanoma): 1600 nM
TGI (SK-MEL-5 melanoma): 2950 nM

CC(NC1=NCCO1)c1cccs1 (stereo not given)
TGI (UACC-257 melanoma): 37900 nM
TGI (COLO 205 colon): 35900 nM
TGI (IGROV1 ovarian): 61600 nM
TGI (HCT-15 colon): > 100000 nM
TGI (SF-295 CNS): 31000 nM
TGI (SF-268 CNS): 69900 nM
TGI (SK-MEL-28 melanoma): 53900 nM
TGI (NCI-H226 lung): > 100000 nM
TGI (SNB-75 CNS): > 100000 nM
TGI (A498 renal): > 100000 nM
TGI (HT29 colon): 42600 nM
TGI (M14 melanoma): 35700 nM
TGI (U251 CNS): 39600 nM
TGI (UO-31 renal): 92800 nM
TGI (OVCAR-5 ovarian): > 100000 nM
TGI (MDA-MB-435): 44400 nM
TGI (HOP-92 NSCLC): 47000 nM
TGI (HL-60(TB) leukemia): 45400 nM
TGI (MDA-MB-231 breast): > 100000 nM
TGI (786-0 renal): 36600 nM
TGI (NCI-H460 lung): > 100000 nM
TGI (MCF7 breast): 55900 nM
TGI (HCT-116 colon): 38600 nM
TGI (OVCAR-8 ovarian): > 100000 nM
TGI (K-562 leukemia): 59600 nM
TGI (OVCAR-4 ovarian): > 100000 nM
TGI (SN12C renal): > 100000 nM
TGI (KM12 colon): 31700 nM
TGI (SW-620 colon): > 100000 nM
TGI (MALME-3M melanoma): 76800 nM
TGI (HCC-2998 colon): 31500 nM
TGI (SNB-19 CNS): 55900 nM
TGI (RPMI-8226 leukemia): > 100000 nM
TGI (TK-10 renal): > 100000 nM
TGI (CCRF-CEM leukemia): 78500 nM
TGI (UACC-62 melanoma): 37300 nM
TGI (T-47D breast): > 100000 nM
TGI (ACHN renal): > 100000 nM
TGI (EKVX NSCLC): > 100000 nM
TGI (NCI/ADR-RES ovarian): > 100000 nM
TGI (SK-OV-3 ovarian): > 100000 nM
TGI (DU-145 prostate): > 100000 nM
TGI (HOP-62 NSCLC): 66500 nM
TGI (A549 NSCLC): > 100000 nM
TGI (NCI-H23 lung): > 100000 nM
TGI (HS 578T breast): > 100000 nM
TGI (SR leukemia): > 100000 nM
TGI (SK-MEL-5 melanoma): 75100 nM
TGI (MOLT-4 leukemia): > 100000 nM
